Experimental data published in US12559529B2, “NPY2 receptor agonists” (Boehringer Ingelheim International GmbH, priority 2019, dated 2026).

Each molecule was assayed against T1, Human Neuropeptide Y2 Receptor (Homo sapiens, UniProt P49146) (assay: Radioligand binding competition assay (RLB)). Settings: Table 3; human 125I-PYY (1-36) 0.02 nM, Y2 receptor membranes; read-out: Ki.
T1 construct: purchased CHEMICON HTS066M
T1 sequence (P49146 1-381): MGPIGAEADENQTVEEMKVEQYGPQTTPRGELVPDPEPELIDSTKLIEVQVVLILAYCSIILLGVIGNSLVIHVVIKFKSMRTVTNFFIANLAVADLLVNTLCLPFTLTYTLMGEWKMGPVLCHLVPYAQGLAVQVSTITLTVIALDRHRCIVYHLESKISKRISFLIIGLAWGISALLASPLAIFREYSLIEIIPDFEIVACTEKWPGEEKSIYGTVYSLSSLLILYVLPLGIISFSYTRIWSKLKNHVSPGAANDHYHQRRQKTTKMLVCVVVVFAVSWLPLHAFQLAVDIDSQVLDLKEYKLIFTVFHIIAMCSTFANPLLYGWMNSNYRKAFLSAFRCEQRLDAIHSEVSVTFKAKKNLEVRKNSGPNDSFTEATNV
Method in brief: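 Competition binding on human Y2 receptor membranes, 0.5 μg protein/well, in 50 mM HEPES, 5 mM MgCl2, 1 mM CaCl2, pH 7.4, 0.2% ovalbumin; peptides diluted from 1 mM DMSO stocks.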

Ki [nM]	Structure (SMILES)
0.94	CC(C)CC(=O)N[C@@H](C)C(=O)N1CCC[C@H]1C(=O)N[C@@H](CCC(=O)O)C(=O)N[C@@H](CCCCNC(=O)COCCOCCNC(=O)COCCOCCNC(=O)CC[C@H](NC(=O)CCCCCCCCCCCCCCCCC(=O)O)C(=O)O)C(=O)N1CCC[C@H]1C(=O)N[C@@H](CCC(=O)O)C(=O)N[C@@H](CCC(=O)O)C(=O)N[C@@H](C)C(=O)N[C@@H](C)C(=O)N[C@@H](CO)C(=O)N1CCC[C@H]1C(=O)N[C@@H](CCC(=O)O)C(=O)N[C@@H](CCC(=O)O)C(=O)N[C@@H](CC(C)C)C(=O)N[C@@H](CCC(N)=O)C(=O)N[C@@H](CCCNC(=N)N)C(=O)N[C@@H](Cc1ccc(O)cc1)C(=O)N[C@@H](Cc1ccc(O)cc1)C(=O)N[C@H](C(=O)N[C@@H](CO)C(=O)N[C@@H](CC(C)C)C(=O)N[C@@H](CCCNC(=N)N)C(=O)N[C@@H](Cc1c[nH]cn1)C(=O)N[C@@H](Cc1ccc(O)cc1)C(=O)N[C@@H](Cc1ccc(O)cc1)C(=O)N[C@@H](CC(N)=O)C(=O)N[C@@H](Cc1c[nH]c2ccccc12)C(=O)N[C@@H](CC(C)C)C(=O)N[C@H](C(=O)N[C@@H](CCCNC(=N)N)C(=O)N[C@@H](CCC(N)=O)C(=O)N[C@@H](CCCNC(=N)N)C(=O)N[C@@H](Cc1ccc(O)cc1)C(N)=O)[C@@H](C)O)C(C)C [Compound 109, N{alpha-4}-(3-methylbutanoyl)-N{epsilon-7}-[2-(2-{2-[2-(2-{2-[(4S)-4-carboxy-4-(17-carboxyheptadecanamido)butanamido]ethoxy}ethoxy)acetamido]ethoxy}ethoxy)acetamido]-[4A,7K,9E,11A,18Q,22V,28Y,30W,31L]hPYY (4-36)]
5.43	CC(C)CC(=O)N[C@@H](C)C(=O)N1CCC[C@H]1C(=O)N[C@@H](CCC(=O)O)C(=O)N[C@@H](CCCCNC(=O)COCCOCCNC(=O)COCCOCCNC(=O)CC[C@H](NC(=O)CCCCCCCCCCCCCCCCC(=O)O)C(=O)O)C(=O)N1CCC[C@H]1C(=O)N[C@@H](CCC(=O)O)C(=O)N[C@@H](CCC(=O)O)C(=O)N[C@@H](CC(=O)O)C(=O)N[C@@H](C)C(=O)N[C@@H](CCC(=O)O)C(=O)N1CCC[C@H]1C(=O)N[C@@H](CCC(=O)O)C(=O)N[C@@H](CCC(=O)O)C(=O)N[C@@H](CC(C)C)C(=O)N[C@@H](CCC(N)=O)C(=O)N[C@@H](CCCNC(=N)N)C(=O)N[C@@H](Cc1ccc(O)cc1)C(=O)N[C@@H](Cc1ccc(O)cc1)C(=O)N[C@H](C(=O)N[C@@H](CCC(=O)O)C(=O)N[C@@H](CC(C)C)C(=O)N[C@@H](CCCNC(=N)N)C(=O)N[C@@H](Cc1c[nH]cn1)C(=O)N[C@@H](Cc1ccc(O)cc1)C(=O)N[C@@H](Cc1ccc(O)cc1)C(=O)N[C@@H](CC(N)=O)C(=O)N[C@@H](Cc1c[nH]c2ccccc12)C(=O)N[C@@H](CC(C)C)C(=O)N[C@H](C(=O)N[C@@H](CCCNC(=N)N)C(=O)N[C@@H](CCC(N)=O)C(=O)N[C@@H](CCCNC(=N)N)C(=O)N[C@@H](Cc1ccc(O)cc1)C(N)=O)[C@@H](C)O)C(C)C [Compound 111, N{alpha-4}-(3-methylbutanoyl)-N{epsilon-7}-[2-(2-{2-[2-(2-{2-[(4S)-4-carboxy-4-(17-carboxyheptadecanamido)butanamido]ethoxy}ethoxy)acetamido]ethoxy}ethoxy)acetamido]-[4A,7K,9E,13E,18Q,22V,23E,28Y,30W,31L]hPYY (4-36)]
3.32	CC(C)CC(=O)N[C@@H](C)C(=O)N1CCC[C@H]1C(=O)N[C@@H](CCC(=O)O)C(=O)N[C@@H](CCCCNC(=O)COCCOCCNC(=O)COCCOCCNC(=O)CC[C@H](NC(=O)CCCCCCCCCCCCCCCCC(=O)O)C(=O)O)C(=O)N1CCC[C@H]1C(=O)N[C@@H](CCC(=O)O)C(=O)N[C@@H](CCC(=O)O)C(=O)N[C@@H](CCC(=O)O)C(=O)N[C@@H](C)C(=O)N[C@@H](CO)C(=O)N1CCC[C@H]1C(=O)N[C@@H](CCC(=O)O)C(=O)N[C@@H](CCC(=O)O)C(=O)N[C@@H](CC(C)C)C(=O)N[C@@H](CCC(N)=O)C(=O)N[C@@H](CCCNC(=N)N)C(=O)N[C@@H](Cc1ccc(O)cc1)C(=O)N[C@@H](Cc1ccc(O)cc1)C(=O)N[C@H](C(=O)N[C@H](C(=O)N[C@@H](CC(C)C)C(=O)N[C@@H](CCCNC(=N)N)C(=O)N[C@@H](Cc1c[nH]cn1)C(=O)N[C@@H](Cc1ccc(O)cc1)C(=O)N[C@@H](Cc1ccc(O)cc1)C(=O)N[C@@H](CC(N)=O)C(=O)N[C@@H](Cc1c[nH]c2ccccc12)C(=O)N[C@@H](CC(C)C)C(=O)N[C@H](C(=O)N[C@@H](CCCNC(=N)N)C(=O)N[C@@H](CCC(N)=O)C(=O)N[C@@H](CCCNC(=N)N)C(=O)N[C@@H](Cc1ccc(O)cc1)C(N)=O)[C@@H](C)O)[C@@H](C)O)C(C)C [Compound 119, N{alpha-4}-(3-methylbutanoyl)-N{epsilon-7}-[2-(2-{2-[2-(2-{2-[(4S)-4-carboxy-4-(17-carboxyheptadecanamido)butanamido]ethoxy}ethoxy)acetamido]ethoxy}ethoxy)acetamido]-[4A,7K,9E,11E,18Q,22V,23T,28Y,30W,31L]hPYY (4-36)]
0.61	CC(C)CC(=O)N[C@@H](C)C(=O)N1CCC[C@H]1C(=O)N[C@@H](C)C(=O)N[C@@H](CCCCNC(=O)COCCOCCNC(=O)COCCOCCNC(=O)CC[C@H](NC(=O)CCCCCCCCCCCCCCCCC(=O)O)C(=O)O)C(=O)N1CCC[C@H]1C(=O)N[C@@H](CCC(=O)O)C(=O)N[C@@H](C)C(=O)N[C@@H](CC(=O)O)C(=O)N[C@@H](C)C(=O)N[C@@H](CO)C(=O)N1CCC[C@H]1C(=O)N[C@@H](CCC(=O)O)C(=O)N[C@@H](CCC(=O)O)C(=O)N[C@@H](CC(C)C)C(=O)N[C@@H](CCC(N)=O)C(=O)N[C@@H](CCCNC(=N)N)C(=O)N[C@@H](Cc1ccc(O)cc1)C(=O)N[C@@H](Cc1ccc(O)cc1)C(=O)N[C@H](C(=O)N[C@@H](CO)C(=O)N[C@@H](CC(C)C)C(=O)N[C@@H](CCCNC(=N)N)C(=O)N[C@@H](Cc1c[nH]cn1)C(=O)N[C@@H](Cc1ccc(O)cc1)C(=O)N[C@@H](Cc1ccc(O)cc1)C(=O)N[C@@H](CC(N)=O)C(=O)N[C@@H](Cc1c[nH]c2ccccc12)C(=O)N[C@@H](CC(C)C)C(=O)N[C@H](C(=O)N[C@@H](CCCNC(=N)N)C(=O)N[C@@H](CCC(N)=O)C(=O)N[C@@H](CCCNC(=N)N)C(=O)N[C@@H](Cc1ccc(O)cc1)C(N)=O)[C@@H](C)O)C(C)C [Compound 121, N{alpha-4}-(3-methylbutanoyl)-N{epsilon-7}-[2-(2-{2-[2-(2-{2-[(4S)-4-carboxy-4-(17-carboxyheptadecanamido)butanamido]ethoxy}ethoxy)acetamido]ethoxy}ethoxy)acetamido]-[4A,6A,7K,9E,10A,18Q,22V,28Y,30W,31L]hPYY (4-36)]
1.84	CC(C)CC(=O)N[C@@H](C)C(=O)N1CCC[C@H]1C(=O)N[C@@H](CCC(=O)O)C(=O)N[C@@H](CCCCNC(=O)COCCOCCNC(=O)COCCOCCNC(=O)CC[C@H](NC(=O)CCCCCCCCCCCCCCCCC(=O)O)C(=O)O)C(=O)N1CCC[C@H]1C(=O)N[C@@H](CCC(=O)O)C(=O)N[C@@H](CCC(=O)O)C(=O)N[C@@H](CC(=O)O)C(=O)N[C@@H](C)C(=O)N[C@@H](C)C(=O)N1CCC[C@H]1C(=O)N[C@@H](CCC(=O)O)C(=O)N[C@@H](CCC(=O)O)C(=O)N[C@@H](CC(C)C)C(=O)N[C@@H](CCC(N)=O)C(=O)N[C@@H](CCCNC(=N)N)C(=O)N[C@@H](Cc1ccc(O)cc1)C(=O)N[C@@H](Cc1ccc(O)cc1)C(=O)N[C@H](C(=O)N[C@@H](CO)C(=O)N[C@@H](CC(C)C)C(=O)N[C@@H](CCCNC(=N)N)C(=O)N[C@@H](Cc1c[nH]cn1)C(=O)N[C@@H](Cc1ccc(O)cc1)C(=O)N[C@@H](Cc1ccc(O)cc1)C(=O)N[C@@H](CC(N)=O)C(=O)N[C@@H](Cc1c[nH]c2ccccc12)C(=O)N[C@@H](CC(C)C)C(=O)N[C@H](C(=O)N[C@@H](CCCNC(=N)N)C(=O)N[C@@H](CCC(N)=O)C(=O)N[C@@H](CCCNC(=N)N)C(=O)N[C@@H](Cc1ccc(O)cc1)C(N)=O)[C@@H](C)O)C(C)C [Compound 122, N{alpha-4}-(3-methylbutanoyl)-N{epsilon-7}-[2-(2-{2-[2-(2-{2-[(4S)-4-carboxy-4-(17-carboxyheptadecanamido)butanamido]ethoxy}ethoxy)acetamido]ethoxy}ethoxy)acetamido]-[4A,7K,9E,13A,18Q,22V,28Y,30W,31L]hPYY (4-36)]
1.18	CC(C)CC(=O)N[C@@H](C)C(=O)N1CCC[C@H]1C(=O)N[C@@H](C)C(=O)N[C@@H](CCCCNC(=O)COCCOCCNC(=O)COCCOCCNC(=O)CC[C@H](NC(=O)CCCCCCCCCCCCCCCCC(=O)O)C(=O)O)C(=O)N1CCC[C@H]1C(=O)N[C@@H](CCC(=O)O)C(=O)N[C@@H](CCC(=O)O)C(=O)N[C@@H](CC(=O)O)C(=O)N[C@@H](CO)C(=O)N[C@@H](CO)C(=O)N1CCC[C@H]1C(=O)N[C@@H](CCC(=O)O)C(=O)N[C@@H](CCC(=O)O)C(=O)N[C@@H](CC(C)C)C(=O)N[C@@H](CCC(N)=O)C(=O)N[C@@H](CCCNC(=N)N)C(=O)N[C@@H](Cc1ccc(O)cc1)C(=O)N[C@@H](Cc1ccc(O)cc1)C(=O)N[C@H](C(=O)N[C@@H](CO)C(=O)N[C@@H](CC(C)C)C(=O)N[C@@H](CCCNC(=N)N)C(=O)N[C@@H](Cc1c[nH]cn1)C(=O)N[C@@H](Cc1ccc(O)cc1)C(=O)N[C@@H](Cc1ccc(O)cc1)C(=O)N[C@@H](CC(N)=O)C(=O)N[C@@H](Cc1c[nH]c2ccccc12)C(=O)N[C@@H](CC(C)C)C(=O)N[C@H](C(=O)N[C@@H](CCCNC(=N)N)C(=O)N[C@@H](CCC(N)=O)C(=O)N[C@@H](CCCNC(=N)N)C(=O)N[C@@H](Cc1ccc(O)cc1)C(N)=O)[C@@H](C)O)C(C)C [Compound 126, N{alpha-4}-(3-methylbutanoyl)-N{epsilon-7}-[2-(2-{2-[2-(2-{2-[(4S)-4-carboxy-4-(17-carboxyheptadecanamido)butanamido]ethoxy}ethoxy)acetamido]ethoxy}ethoxy)acetamido]-[4A,6A,7K,9E,12S,18Q,22V,28Y,30W,31L]hPYY (4-36)]
